Test results from patent publication EP4692059A1, “CATIONIC LIPID HAVING DISULFIDE BOND” (Tohoku University, priority 2023, dated 2024).

Key:
[1] = Particle size, PdI and zeta potential of mRNA-encapsulating LNPs by dynamic light scattering (Experimental Example 2); type: physicochemical
Description: An acidic buffer solution (total amount: 1080 µL) of nucleic acid was prepared by weighing 7.2 µg of mRNA solution (0.6 mg/mL) in a 5 mL tube and adding acidic malate buffer (20 mM, pH 3.0).
An acidic buffer solution of nucleic acid and an ethanol solution of lipid were each weighed in a syringe.
The particle size, PdI (Polydispersity Index), and zeta potential of the mRNA-encapsulating LNP prepared by the method of the above-mentioned 1 were measured by a dynamic light scattering method (Zetasizer Nano; Malvern).

liver [2] = test: In vivo gene expression, luciferase luminescence in the liver after tail vein administration (Experimental Example 4); conditions: BALB/c mouse, mRNA 0.05 mg/kg; for amount of luminescence (photons/sec) in liver: tail vein, 4.5 hr after administration, LNP cationic lipid:DOPC:Chol:DMG-PEG2k = 52.5:7.5:40:1.5, prepared as in Experimental Example 2; for relative amount of luminescence: liver luminescence relative to cationic lipid of Comparative Example
Description: LNP encapsulating mRNA that expresses luciferase (cationic lipid:DOPC:Chol:DMG-PEG2k = 52.5:7.5:40:1.5 (molar ratio)) was prepared by the method described in [Experimental Example 2], 1.
(§1) The prepared each mRNA-encapsulating LNP dispersion was administered from the tail vein of BALB/c mouse (male, 5-week-old). The dose of mRNA was set to 0.05 mg per 1 kg body weight of the mouse, and the dose of the mRNA-encapsulating LNP dispersion was set to 10 µL per 1 g body weight of the mouse. After 4.5 hr from the administration of the mRNA-encapsulating LNP dispersion, a PBS solution of D-luciferin potassium was administered into the abdominal cavity of the mouse. The dose of D-luciferin potassium was set to 3 mg per mouse, and the dose of the PBS solution of D-luciferin potassium was set to 200 µL per mouse. After 15 min from the administration of the PBS solution of D-luciferin potassium, the mouse was euthanized, and the liver was isolated. The luminescence in the liver was quantified using an in vivo imaging system (IVIS) with an exposure of 10 sec. The amount of luminescence in the liver was quantified by image analysis using Live Imaging software attached to IVIS. The amount of luminescence (photons/sec) was calculated from the acquired image and used as an index of gene expression activity. The cationic lipids used, the luminescence intensity in the liver, and the relative luminescence intensity (= luminescence intensity in the liver when cationic lipid of Example was used/luminescence intensity in the liver when cationic lipid of Comparative Example was used) are shown in Table 7-1 to Table 7-3. "E+0a" (a: integer) indicated in Table 7-1 to Table 7-3 means "10^a". For example, "3.94E+09" means "3.94×10^9". […]

HeLa cells = test: In vitro gene expression in HeLa cells (luciferase mRNA-encapsulating LNP, cumulative luminescence in 24 hr); conditions: for cumulative luciferase luminescence intensity (RLU) in 24 hr: LNP cationic lipid:DOPC:Chol:DMG-PEG2k = 50:10:40:1, mRNA 0.2 µg per dish, E+0a means 10^a; for relative luminescence intensity: cumulative intensity in 24 hr relative to cationic lipid of Comparative Example
Description: LNP encapsulating mRNA that expresses luciferase (cationic lipid:DOPC:Chol:DMG-PEG2k = 50:10:40:1 (molar ratio)) was prepared by the method described in [Experimental Example 2], 1.
HeLa cells, which are human cervical cancer cells, were seeded in a 3.5 cm dish at 5.0×10^4 cells/2 mL/Dish 24 hours before transfection. After 24 hr, the medium was changed to a culture medium (D-MEM) containing 0.1 mM D-luciferin. The prepared mRNA-encapsulating LNP was diluted with PBS to an mRNA concentration of about 1 µg/mL. The diluted mRNA-encapsulating LNP solution (about 200 µL, mRNA: 0.2 µg) was added to a 3.5 cm dish, and set in an incubator luminometer KronosDio. The luminescence intensity of luciferase was measured for 2 min every one hour. The cumulative luciferase luminescence intensity in 24 hr was calculated from the obtained time change of expression. […] In Comparative Example, the cationic lipid described in Table 2 was used.

[3] = Particle size, PdI and zeta potential of mRNA-encapsulating LNPs by dynamic light scattering (Experimental Example 6); type: physicochemical; conditions: mRNA-encapsulating LNP; for zeta potential (mV): cationic lipid:DOPC:Chol=49:7.5:42.5:1, dispersion in TBS (Tables 8-1, 8-2); for PdI / particle size (nm): cationic lipid:DOPC:Chol=49:7.5:42.5:1, dispersion in TBS, dynamic light scattering (Tables 8-1, 8-2)
Description: An acidic buffer solution (total amount: 1300 µL) of nucleic acid was prepared by weighing 6.5 µg of mRNA solution (0.6 mg/mL) in a 5 mL tube and adding acidic citrate buffer (20 mM, pH 5.0).
An acidic buffer solution of nucleic acid and an ethanol solution of lipid were each weighed in a syringe. […] The obtained concentrate was diluted with TBS to a lipid concentration of 2 mM to give a dispersion containing LNP.
The particle size, PdI (Polydispersity Index), and zeta potential of the mRNA-encapsulating LNP prepared by the method of the above-mentioned 1 were measured by a dynamic light scattering method (Zetasizer Nano; Malvern). […]

liver [4] = test: In vivo gene expression, luciferase luminescence in the liver after tail vein administration (Experimental Example 7); conditions: BALB/c mouse, mRNA 0.05 mg/kg
Description: LNP encapsulating mRNA that expresses luciferase (cationic lipid:DOPC:Chol:DMG-PEG2k = 52.5:7.5:40:1.5 (molar ratio)) was prepared by the method described in [Experimental Example 6], 1.
as §1, with “9.” for “7-1 to Table 7-3. "E+0a" (a: integer) indicated in Table 7-1 to Table 7-3 means "10^a".”

[5] = mRNA-encapsulating LNP, cationic lipid:DOPC:Chol = 50:10:40 (molar ratio) + DMG-PEG2k about 1 mol, Polydispersity Index, dynamic light scattering
[6] = mRNA-encapsulating LNP, cationic lipid:DOPC:Chol = 50:10:40 (molar ratio) + DMG-PEG2k about 1 mol, Zetasizer Nano
[7] = mRNA-encapsulating LNP, cationic lipid:DOPC:Chol = 50:10:40 (molar ratio) + DMG-PEG2k about 1 mol, dynamic light scattering
[8] = mRNA-encapsulating LNP containing the cationic lipid, dispersion in PBS (Table 5-3)
[9] = mRNA-encapsulating LNP containing the cationic lipid, dispersion in PBS, dynamic light scattering (Table 5-3)

## CCCCCCCC/C=C\CCCCCCCC(=O)Oc1ccc(CC(=O)OCCC2CCN(CCSSCCN3CCC(CCOC(=O)Cc4ccc(OC(=O)CCCCCCC/C=C\C[C@H](CCCCCC)OC(C)=O)cc4)CC3)CC2)cc1 [compound 1]
[1]; [5]
  PdI: 0.070
[1]; [6]
  zeta potential (mV): -3.79 mV
[1]; [7]
  particle size (nm): 96.63 nm
Liver [2]
  amount of luminescence (photons/sec) in liver: 3.94E+09 photons/sec
  relative amount of luminescence: 2.59
HeLa cells
  cumulative luciferase luminescence intensity (RLU) in 24 hr: 2.61E+07 RLU
  relative luminescence intensity: 1.42

## CCCCCCCC/C=C\CCCCCCCC(=O)Oc1ccc(CC(=O)OCCC2CCN(CCSSCCN3CCC(CCOC(=O)Cc4ccc(OC(=O)CCCC(=O)OC[C@H](COC(=O)CCCCCCC)OC(=O)CCCCCCC)cc4)CC3)CC2)cc1 [compound 5]
[1]; [5]
  PdI: 0.112
[1]; [6]
  zeta potential (mV): -4.68 mV
[1]; [7]
  particle size (nm): 106.10 nm
Liver [2]
  amount of luminescence (photons/sec) in liver: 3.76E+09 photons/sec
  relative amount of luminescence: 2.48
HeLa cells
  cumulative luciferase luminescence intensity (RLU) in 24 hr: 4.16E+07 RLU
  relative luminescence intensity: 2.25

## CCCCCCCC/C=C\CCCCCCCC(=O)Oc1ccc(CC(=O)OCCC2CCN(CCSSCCN3CCC(CCOC(=O)Cc4ccc(OC(=O)CCCC(=O)OC[C@H](COC(=O)CCCCC)OC(=O)CCCCC)cc4)CC3)CC2)cc1 [compound 13]
[1]; [5]
  PdI: 0.073
[1]; [6]
  zeta potential (mV): -3.63 mV
[1]; [7]
  particle size (nm): 94.42 nm
HeLa cells
  cumulative luciferase luminescence intensity (RLU) in 24 hr: 1.24E+08 RLU
  relative luminescence intensity: 6.72

## CCCCCC[C@@H](C/C=C\CCCCCCCC(=O)Oc1ccc(CC(=O)OCCC2CCN(CCSSCCN3CCC(CCOC(=O)Cc4ccc(OC(=O)CCCC(=O)OC[C@H](COC(C)=O)OC(C)=O)cc4)CC3)CC2)cc1)OC(=O)CCCCC [compound 17]
[1]; [5]
  PdI: 0.061
[1]; [6]
  zeta potential (mV): -5.19 mV
[1]; [7]
  particle size (nm): 127.90 nm
Liver [2]
  amount of luminescence (photons/sec) in liver: 3.73E+09 photons/sec
  relative amount of luminescence: 2.45
HeLa cells
  cumulative luciferase luminescence intensity (RLU) in 24 hr: 5.18E+07 RLU
  relative luminescence intensity: 2.81

## CCCCCC/C=C\COC(=O)CCCC(=O)Oc1ccc(CC(=O)OCCC2CCN(CCSSCCN3CCC(CCOC(=O)Cc4ccc(OC(=O)CCCC(=O)OC/C=C\CCCCCC)cc4)CC3)CC2)cc1 [compound 41]
[1]; [5]
  PdI: 0.067
[1]; [6]
  zeta potential (mV): -2.30 mV
[1]; [7]
  particle size (nm): 123.30 nm
Liver [2]
  amount of luminescence (photons/sec) in liver: 1.73E+09 photons/sec
  relative amount of luminescence: 1.14

## CCCCCC/C=C\COC(=O)CCCC(=O)Oc1ccc(CC(=O)OCCC2CCN(CCSSCCN3CCC(CCOC(=O)Cc4ccc(OC(=O)CCCCCCC/C=C\CCCCCCCC)cc4)CC3)CC2)cc1 [compound 43]
[1]; [5]
  PdI: 0.072
[1]; [6]
  zeta potential (mV): -3.98 mV
[1]; [7]
  particle size (nm): 90.46 nm
[3]
  zeta potential (mV): -5.9 mV
  PdI: 0.17
  particle size (nm): 128.2 nm

## CCCCCCCC/C=C\CCCCCCCC(=O)Oc1ccc(CC(=O)OCCC2CCN(CCSSCCN3CCC(CCOC(=O)Cc4ccc(OC(=O)CCCC(=O)OC(CC(=O)OCCCC)(CC(=O)OCCCC)CC(=O)OCCCC)cc4)CC3)CC2)cc1 [compound 58]
[1]; [8]
  zeta potential (mV): -3.5 mV
[1]; [9]
  PdI: 0.065
  particle size (nm): 96.6 nm
[3]
  zeta potential (mV): -4.2 mV
  PdI: 0.071
  particle size (nm): 90.0 nm
Liver [4]; tail vein, 4.5 hr after administration, LNP cationic lipid:DOPC:Chol:DMG-PEG2k = 52.5:7.5:40:1.5, prepared as in Experimental Example 6
  amount of luminescence (photons/sec) in liver: 1.72E+10 photons/sec
Liver [4]; liver luminescence relative to cationic lipid of Comparative Example
  relative amount of luminescence: 8.40

## CCCCCCCC/C=C\CCCCCCCC(=O)Oc1ccc(CC(=O)OCCC2CCN(CCSSCCN3CCC(CCOC(=O)Cc4ccc(OC(=O)CCCC(=O)N(CCCCCC)CCCCCC)cc4)CC3)CC2)cc1 [compound 124]
[1]; [8]
  zeta potential (mV): -5.07 mV
[1]; [9]
  PdI: 0.111
  particle size (nm): 96.63 nm
Liver [2]
  amount of luminescence (photons/sec) in liver: 5.12E+09 photons/sec
  relative amount of luminescence: 3.37

## CCCCCCCC/C=C\CCCCCCCC(=O)Oc1ccc(CC(=O)OCCC2CCN(CCSSCCN3CCC(CCOC(=O)Cc4ccc(OC(=O)CCCCCCCCCCC(CCCCCC)OC(=O)CCCCCCC)cc4)CC3)CC2)cc1 (stereo not shown) [compound 145]
[1]; [8]
  zeta potential (mV): -2.39 mV
[1]; [9]
  PdI: 0.034
  particle size (nm): 83.1 nm
Liver [2]
  amount of luminescence (photons/sec) in liver: 6.65E+09 photons/sec
  relative amount of luminescence: 4.37
[3]
  zeta potential (mV): -3.79 mV
  PdI: 0.082
  particle size (nm): 122.1 nm

## CCCCCCC#CCCOC(=O)CCCC(=O)Oc1ccc(CC(=O)OCCC2CCN(CCSSCCN3CCC(CCOC(=O)Cc4ccc(OC(=O)CCCCCCCC(=O)OC(CCCCCCCC)CCCCCCCC)cc4)CC3)CC2)cc1 [compound 148]
[1]; [5]
  PdI: 0.063
[1]; [6]
  zeta potential (mV): -4.31 mV
[1]; [7]
  particle size (nm): 92.96 nm
[3]
  zeta potential (mV): -7.4 mV
  PdI: 0.15
  particle size (nm): 133.6 nm

## CCCCCCC#CCCOC(=O)CCCC(=O)Oc1ccc(CC(=O)OCCC2CCN(CCSSCCN3CCC(CCOC(=O)Cc4ccc(OC(=O)CCCCCCC/C=C\CCCCCCCC)cc4)CC3)CC2)cc1 [compound 149]
[1]; [5]
  PdI: 0.059
[1]; [6]
  zeta potential (mV): -6.03 mV
[1]; [7]
  particle size (nm): 97.44 nm
[3]
  zeta potential (mV): -6.2 mV
  PdI: 0.15
  particle size (nm): 123.1 nm

## CCCCCCC#CCCOC(=O)CCCC(=O)Oc1ccc(CC(=O)OCCC2CCN(CCSSCCN3CCC(CCOC(=O)Cc4ccc(OC(=O)CCCC(=O)Oc5c(C)c(C)c6c(c5C)CCC(C)(CCCC(C)CCCC(C)CCCC(C)C)O6)cc4)CC3)CC2)cc1 (stereo not shown) [compound 150]
[1]; [5]
  PdI: 0.071
[1]; [6]
  zeta potential (mV): -2.14 mV
[1]; [7]
  particle size (nm): 94.66 nm
[3]
  zeta potential (mV): -8.1 mV
  PdI: 0.11
  particle size (nm): 130.2 nm
